What was measured:
HUT78 human TCL cells [1] = experiment: Dose-dependent effects on CD137L protein surface expression (flow cytometry); assay type: cell-based; conditions: for regulation of CD137L protein surface expression, HUT78 Protein: summary Table 3; for CD137L protein surface expression: HUT78 cells, dose range, 24 hours; on regulation of CD137L protein surface expression, HUT78 Protein: key: 'Y' indicates the treatment caused upregulation; 'N' indicates the treatment did not cause upregulation
Description: HUT78 cells, cultured in 6-well plates in RPMI-1640 medium containing 20% fetal bovine serum (FBS), were treated with a dose range of Romidepsin (0-0.1 μM), Bortezomib (0-1.0 μM), Belinostat (0-1.0 μM), Chidamide (0-3.0 μM), or Vincristine (0-0.03 μM) for 24 hours. Cells (1×10^5) were washed twice in Dulbecco's Phosphate Buffered Saline (DPBS), stained with either Phycoerythrin (PE)-conjugated Isotype Control (Biolegend catalog #400112) and anti-human-CD137L (Biolegend catalog #311504) antibodies (1 μL antibody in 100 μL DPBS, FIG. 5A-5E) or PE-Cy7-conjugated Isotype Control (Thermofisher catalog #25-4714-80) and anti-human-CD137L (Thermofisher catalog #25-5906-42) antibodies (1 μL antibody in 100 μL DPBS, FIG. 5F-5H) at 4° C. for 30 minutes, washed twice in DPBS, and resuspended in 100 μL DPBS for flow cytometry analysis.

SU-DHL1 human TCL cells = experiment: mRNA expression, QuantiGene Plex assay, SU-DHL1; assay type: cell-based; conditions: for regulation of CD137L mRNA expression, SU-DHL1 mRNA: summary Table 3; on regulation of CD137L mRNA expression, SU-DHL1 mRNA: key: 'Y' indicates the treatment caused upregulation; 'N' indicates the treatment did not cause upregulation
Description: (§1) HUT102, HUT78, and SU-DHL1 cells, cultured in 96-well plates, were treated with a dose range of Romidepsin (0-0.1 μM), Bortezomib (0-1.0 μM), Belinostat (0-10.0 μM), or Vincristine (0-0.03 μM) for 24 hours. Cells were lysed with Lysis Buffer and cell lysates were used for the QuantiGene Plex assay (7-gene multiplex (CD80, CD86, CD274, CD137, CD137L, HPRT1, GAPDH))

HUT102 human TCL cells = experiment: mRNA expression, QuantiGene Plex assay, HUT102; assay type: cell-based; conditions: for regulation of CD137L mRNA expression, HUT102 mRNA: summary Table 3; for CD137L mRNA expression / CD137 mRNA expression / CD274 mRNA expression: HUT102 cells, dose range, 24 hours; on regulation of CD137L mRNA expression, HUT102 mRNA: key: 'Y' indicates the treatment caused upregulation; 'N' indicates the treatment did not cause upregulation
Description: as §1

HUT78 human TCL cells [2] = experiment: mRNA expression, QuantiGene Plex assay, HUT78; assay type: cell-based; conditions: for regulation of CD137L mRNA expression, HUT78 mRNA: summary Table 3; for CD137L mRNA expression: HUT78 cells, dose range, 24 hours; on regulation of CD137L mRNA expression, HUT78 mRNA: key: 'Y' indicates the treatment caused upregulation; 'N' indicates the treatment did not cause upregulation
Description: as §1

[3] = tested on: A20 B cell lymphoma cells; assay type: in vivo, BALB/c mice; conditions: ADG106 5 mg/kg twice a week for 4 doses; Bendamustine 12.5 mg/kg once a day for 4 doses; intraperitoneal
Description: BALB/c mice (n=8 per group, female, 6-8 weeks old) were transplanted subcutaneously with 5×10^5 A20 B cell lymphoma cells. After tumors were established (i.e., having reached a volume of 100 mm^3), mice were treated with vehicle, ADG106 (5 mg/kg, twice a week for 4 doses by intraperitoneal injection), Bendamustine (12.5 mg/kg, once a day for 4 doses by intraperitoneal injection), or ADG106 (5 mg/kg, twice a week for 4 doses by intraperitoneal injection) in combination with Bendamustine (12.5 mg/kg, once a day for 4 doses by intraperitoneal injection). Tumor growth was monitored twice weekly and reported as mean tumor volume±SEM over time.

purified human T cells = experiment: Cell viability of purified human T cells (CellTiter-Glo); assay type: cell-based; conditions: dose range, 24 hours
Description: (§2) T cells were purified from human PBMCs (>95% purity, data not shown), cultured in 96-well plates in RPMI-1640 medium containing 10% fetal bovine serum (FBS), and treated with a dose range of Romidepsin (0-0.1 μM), Bortezomib (0-1.0 μM), or Chidamide (0-3.0 μM) for 24 hours. The CellTiter-Glo assay (Promega) was used to assess cell viability according to the manufacturer's instructions.

HUT78 human TCL cells [4] = experiment: Cell viability of HUT78 cells (CellTiter-Glo); assay type: cell-based; conditions: dose range, 24 hours
Description: as §2, with “HUT78 cells,” for “T cells were purified from human PBMCs (>95% purity, data not shown),”, “20%” for “10%”, “were” for “and”

HUT78 human TCL cells [5] = experiment: Time-dependent effects on CD137L protein surface expression (flow cytometry); assay type: cell-based; conditions: 0.003 μM Romidepsin or 0.01 μM Bortezomib, 2, 6, 16 or 24 hours
Description: HUT78 cells, cultured in 6-well plates in RPMI-1640 medium containing 20% FBS, were treated with 0.003 μM Romidepsin or 0.01 μM Bortezonib for 2, 6, 16, or 24 hours. Cells (1×103) were washed twice in DPBS, stained with PE-conjugated Isotype Control (Biolegend catalog #400112) and anti-human-CD137L (Biolegend catalog #311504) antibodies (1 μL antibody in 100 μL DPBS) at 4° C. for 30 minutes, washed twice in DPBS, and resuspended in 100 μL DPBS for flow cytometry analysis.

human T lymphocytes = conditions: Kim K. et al., Immunology 2002; cited from earlier work
[6] = SU-DHL1 cells, dose range, 24 hours

Compound | regulation of CD137L protein surface expression, HUT78 Protein (HUT78 human TCL cells [1]) | CD137L protein surface expression (HUT78 human TCL cells [1]) | regulation of CD137L mRNA expression, SU-DHL1 mRNA (SU-DHL1 human TCL cells) | CD137L mRNA expression (SU-DHL1 human TCL cells; [6]) | regulation of CD137L mRNA expression, HUT102 mRNA (HUT102 human TCL cells) | CD137L mRNA expression (HUT102 human TCL cells) | regulation of CD137L mRNA expression, HUT78 mRNA (HUT78 human TCL cells [2]) | CD137L mRNA expression (HUT78 human TCL cells [2]) | expression of CD137 in human T lymphocytes (human T lymphocytes) | further results
O=C(/C=C/c1cccc(S(=O)(=O)Nc2ccccc2)c1)NO [Belinostat, belinostat] | Y | dose-dependent upregulation | Y | dose-dependent upregulation | Y | dose-dependent upregulation | Y | dose-dependent upregulation |  | CD137 mRNA expression (SU-DHL1 human TCL cells; [6]): induced; CD137 mRNA expression (HUT102 human TCL cells): induced; CD274 mRNA expression (HUT102 human TCL cells): induced
Cn1c(CCCC(=O)O)nc2cc(N(CCCl)CCCl)ccc21 [Bendamustine, bendamustine] |  |  |  |  |  |  |  |  |  | tolerability in mice as monotherapies [3]: well tolerated
CC(C)C[C@H](NC(=O)[C@H](Cc1ccccc1)NC(=O)c1cnccn1)B(O)O [Bortezomib, bortezomib] | Y | dose-dependent upregulation | Y | dose-dependent upregulation | Y | dose-dependent upregulation | N | not |  | viability of purified human T cells (purified human T cells): minimal or no effect; cell viability of HUT78 human TCL cells (HUT78 human TCL cells [4]): inhibited cell viability; CD274 mRNA expression (HUT102 human TCL cells): induced; CD137L protein surface expression over time (HUT78 human TCL cells [5]): time-dependent upregulation
Nc1cc(F)ccc1NC(=O)c1ccc(CNC(=O)/C=C/c2cccnc2)cc1 [Chidamide, chidamide] | Y |  |  |  |  |  |  |  |  | 
CO[C@@]12[C@H](COC(N)=O)C3=C(C(=O)C(C)=C(N)C3=O)N1C[C@@H]1N[C@@H]12 [Mitomycin, mitomycin] |  |  |  |  |  |  |  |  | induce expression of CD137 | 
C/C=C1\NC(=O)[C@H]2CSSCC/C=C/[C@H](CC(=O)N[C@H](C(C)C)C(=O)N2)OC(=O)[C@H](C(C)C)NC1=O [Romidepsin, romidepsin] | Y |  | Y |  | Y |  | Y |  |  | 
CC[C@]1(O)C[C@H]2CN(CCc3c([nH]c4ccccc34)[C@@](C(=O)OC)(c3cc4c(cc3OC)N(C=O)[C@H]3[C@@](O)(C(=O)OC)[C@H](OC(C)=O)[C@]5(CC)C=CCN6CC[C@]43[C@@H]65)C2)C1 [Vincristine, vincristine] | N | did not show upregulation | N | not | Y | induced upregulation | N | not |  | CD137 mRNA expression (HUT102 human TCL cells): induced
COc1cccc2c1C(=O)c1c(O)c3c(c(O)c1C2=O)C[C@@](O)(C(=O)CO)C[C@@H]3O[C@H]1C[C@H](N)[C@H](O)[C@H](C)O1 [doxorubicin] |  |  |  |  |  |  |  |  | induce expression of CD137 | 
ADG106: anti-CD137 antibody; heavy chain SEQ ID NO: 10, light chain SEQ ID NO: 11; used as mouse IgG1 in Example 10 |  |  |  |  |  |  |  |  |  | tolerability in mice as monotherapies [3]: well tolerated
bleomycin |  |  |  |  |  |  |  |  | induce expression of CD137 | 

— patent US20230242663A1, “COMBINATION THERAPY COMPRISING ANTI-CD137 ANTIBODIES” (Adagene PTE. LTD., priority 2020, published 2023)
